Results published in article PMC8980233, “Differentiating the Neuropharmacological Properties of Nicotinic Acetylcholine Receptor-Activating Alkaloids” (Frontiers in Pharmacology, 2022).
Read-outs that look alike come from different tables or passages of the source.

Key:
[1] = test system: dopamine release from striatal synaptosomes; assay: In vitro [3H]dopamine release from crude striatal synaptosomes; format: biochemical, rat; conditions: for EC50: striatal synaptosomes
Protocol: In brief, male Sprague Dawley rats (200–225 g) were terminated by cervical dislocation followed by decapitation. The striatums or hippocampi were dissected and homogenized in ice-cold 0.32 M sucrose using a Dounce homogenizer. The homogenates were centrifuged at 100 x g for 5 min to pellet cell debris. The supernatants were collected and centrifuged at 17,000 x g for 10 min at 4°C to pellet crude synaptosomes.
The [^3H]norepinephrine- or [^3H]dopamine-treated crude synaptosomes were loaded onto closed filter chambers containing Whatman® Grade GF/C Glass Microfiber filters (Sigma-Aldrich, Merck KGaA, Darmstadt, Germany) and placed in a superfusion system. […] To ensure an even flow over the synaptosomal bed, trapped air bubbles were removed from the filters prior to collection of the fractions. After a superfusion period of 40 min, three basal fractions (1.5 ml/fraction) were collected first, followed by three fractions (1.5 ml/fraction) containing the test compound. Two additional fractions were collected in the presence of 30 mM KCl to depolarize the synaptosomes. […] Once all fractions were collected, the filters holding the crude synaptosome samples were removed and dried overnight at room temperature. On the following day, the scintillation cocktail was added and the filters were counted to determine residual radioactivity.
Compound-evoked release of neurotransmitters was calculated by subtracting the counts per minute (CPM) in the two basal fractions collected immediately prior to compound addition from those in the two fractions collected immediately following compound addition. The compound-evoked release was then expressed as a percentage of the basal release from that chamber. Potassium-evoked release was calculated by subtracting the CPM in the fraction immediately prior to KCl addition from the CPM in the […] immediately following potassium addition. Stimulated release was calculated as the percentage of basal release for that chamber. The increase in stimulated release above the baseline (no compound) release for that experimental run was determined, and the latter values were plotted on the graphs. Dose–response curves were determined using non-linear curve fitting in Prism (GraphPad Software, Inc, San Diego, CA, United States). All experiments were repeated at least three times.

α4β2 nAChR = α4β2 nAChR (Homo sapiens, UniProt P17787+P43681); assay: nAChR functional assay, automated patch-clamp; format: cell-based
Protocol: (§1) Electrophysiological responses were recorded using an automated patch-clamp Patchliner Octo® system (Nanion Technologies, Munich, Germany) equipped with two EPC-10 Quadro patch-clamp amplifiers (HEKA Elektronik, Lambrecht, Germany) as described by ([Alijevic et al., 2020]). In brief, Chinese hamster ovary (CHO) or human embryonic kidney-293 (HEK-293) cells stably expressing human nAChRs (Charles River Laboratories, Wilmington, MA, United States) were maintained in DMEM/F12 medium (Gibco, Thermo Fisher Scientific, Waltham, MA, United States) supplemented with 10% heat-inactivated fetal bovine serum (FBS; Gibco) and penicillin–streptomycin (100 U/mL and 0.1 mg/ml, respectively; Sigma-Aldrich, St. Louis, MO, United States) at 37°C in 5% CO2 and 70% humidity. The following selection antibiotics were used for the cell lines: G418 (0.25 mg/ml; Sigma-Aldrich) and Zeocin^TM (0.4 mg/ml; InvivoGen, San Diego, CA, United States) for α7/Ric3 nAChR and α3β4 nAChR cells; puromycin (8 μg/ml; InvivoGen) and hygromycin B (0.4 mg/ml; Gibco) for α4β2 nAChR cells; and G418 (0.5 mg/ml), puromycin (0.25 μg/ml), and hygromycin B (0.02 mg/ml) for α6/3β2/β3 nAChR cells. The cells were used for characterizing nAChR pharmacology, because no endogenous ionotropic nicotinic receptors are found ([Roncarati et al., 2008]; [Papke and Smith-Maxwell, 2009]; [Kirsch et al., 2016]; [Scheffel et al., 2018]). The subunit distributions in the cells have been previously described ([Alijevic et al., 2020]). The human nAChRs were selected due to the lack of commercially available nAChR expression systems for mouse or zebrafish. The translatability of findings between zebrafish and human nAChR activities have been previously reported ([Papke and Smith-Maxwell, 2009]; [Papke et al., 2012]; [Alijevic et al., 2020]).
(§2) On the day of the experiment, nAChR-expressing cells were suspended in extracellular solution (in mM: 140 NaCl, 4KCl, one MgCl2, two CaCl2, five glucose, and 10 HEPES, adjusted to pH 7.4 with NaOH (298 mOsmol)), then placed in the Patchliner Octo® system. The internal solution contained in mM: 50 KCl, 60 kF, 10 NaCl, 20 EGTA, and 10 HEPES, adjusted to pH 7.2 with KOH (285 mOsmol). […] Data were analyzed using the Patchmaster software and corrected for leak current. The data acceptance criteria were as follows: seal resistance >100 MΩ; seal resistance loss variation <50%; access resistance <20 MΩ; and minimum current amplitude elicited by maximal effect concentration acetylcholine >50 pA. Offline data analysis was performed in OpenOffice™ (v4.1.2; The Apache Software Foundation, Wakefield, MA, United States). Data are presented as mean ± S.D. All experiments were performed at room temperature (24°C) and repeated at least three times. Igor Pro (v6.2.2.2; WaveMetrics, Lake Oswego, OR, United States) or Prism (v8.2.1) were used for assessing the concentration–response curves.

α6/3β2β3 nAChR = α6/3β2β3 nAChR (Homo sapiens, UniProt P17787+P32297+Q15825); assay: nAChR functional assay, automated patch-clamp; format: cell-based
Protocol: as §1, §2

α4β2 nAChR, sequence (P43681 29-627 limits assumed): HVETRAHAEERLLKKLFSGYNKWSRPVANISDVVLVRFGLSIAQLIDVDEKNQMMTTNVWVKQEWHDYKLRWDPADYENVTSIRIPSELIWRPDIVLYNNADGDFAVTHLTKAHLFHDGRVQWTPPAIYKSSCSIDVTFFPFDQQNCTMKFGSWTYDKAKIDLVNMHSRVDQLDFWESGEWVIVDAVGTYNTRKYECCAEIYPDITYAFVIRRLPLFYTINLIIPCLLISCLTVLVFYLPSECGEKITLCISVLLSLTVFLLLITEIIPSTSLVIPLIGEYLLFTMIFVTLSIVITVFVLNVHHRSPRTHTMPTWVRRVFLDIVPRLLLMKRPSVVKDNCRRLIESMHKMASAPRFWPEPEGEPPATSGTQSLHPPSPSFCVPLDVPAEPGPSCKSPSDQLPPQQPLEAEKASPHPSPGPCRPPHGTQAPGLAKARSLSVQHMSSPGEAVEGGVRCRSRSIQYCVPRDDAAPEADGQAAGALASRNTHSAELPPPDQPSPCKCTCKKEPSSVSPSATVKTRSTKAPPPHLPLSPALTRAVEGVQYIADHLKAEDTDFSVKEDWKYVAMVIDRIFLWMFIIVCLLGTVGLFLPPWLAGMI
α4β2 nAChR, sequence (P17787 26-502): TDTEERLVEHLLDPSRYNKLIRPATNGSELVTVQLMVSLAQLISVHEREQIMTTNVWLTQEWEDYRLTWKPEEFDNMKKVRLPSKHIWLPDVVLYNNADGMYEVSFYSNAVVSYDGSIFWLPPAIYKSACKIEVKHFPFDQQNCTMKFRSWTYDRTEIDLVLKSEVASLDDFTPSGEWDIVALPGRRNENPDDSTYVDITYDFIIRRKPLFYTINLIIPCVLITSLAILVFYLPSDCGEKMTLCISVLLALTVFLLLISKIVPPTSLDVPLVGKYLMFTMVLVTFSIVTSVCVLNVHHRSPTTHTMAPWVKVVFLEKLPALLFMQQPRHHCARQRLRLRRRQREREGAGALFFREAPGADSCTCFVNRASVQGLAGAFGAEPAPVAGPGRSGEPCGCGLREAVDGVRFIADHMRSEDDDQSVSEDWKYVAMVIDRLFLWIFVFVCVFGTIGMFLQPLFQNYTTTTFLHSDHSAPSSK
α6/3β2β3 nAChR, sequence (Q15825+P32297 fused with the stated changes): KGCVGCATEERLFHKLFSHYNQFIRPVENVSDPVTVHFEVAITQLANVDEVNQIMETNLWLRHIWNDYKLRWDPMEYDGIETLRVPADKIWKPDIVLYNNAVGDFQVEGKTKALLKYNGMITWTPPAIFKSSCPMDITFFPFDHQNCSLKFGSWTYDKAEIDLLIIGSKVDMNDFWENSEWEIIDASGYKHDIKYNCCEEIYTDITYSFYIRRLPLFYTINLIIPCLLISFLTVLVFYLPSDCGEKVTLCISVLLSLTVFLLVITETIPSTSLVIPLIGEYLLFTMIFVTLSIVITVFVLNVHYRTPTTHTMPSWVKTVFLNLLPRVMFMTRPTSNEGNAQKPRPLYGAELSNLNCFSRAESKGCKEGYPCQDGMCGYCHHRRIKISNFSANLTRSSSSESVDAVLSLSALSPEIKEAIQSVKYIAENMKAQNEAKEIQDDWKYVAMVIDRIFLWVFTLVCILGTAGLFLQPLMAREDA
α6/3β2β3 nAChR, sequence (P17787 26-502): as the sequence (P17787 26-502) above
α6/3β2β3 nAChR, sequence (Q05901 25-458 partner limits assumed): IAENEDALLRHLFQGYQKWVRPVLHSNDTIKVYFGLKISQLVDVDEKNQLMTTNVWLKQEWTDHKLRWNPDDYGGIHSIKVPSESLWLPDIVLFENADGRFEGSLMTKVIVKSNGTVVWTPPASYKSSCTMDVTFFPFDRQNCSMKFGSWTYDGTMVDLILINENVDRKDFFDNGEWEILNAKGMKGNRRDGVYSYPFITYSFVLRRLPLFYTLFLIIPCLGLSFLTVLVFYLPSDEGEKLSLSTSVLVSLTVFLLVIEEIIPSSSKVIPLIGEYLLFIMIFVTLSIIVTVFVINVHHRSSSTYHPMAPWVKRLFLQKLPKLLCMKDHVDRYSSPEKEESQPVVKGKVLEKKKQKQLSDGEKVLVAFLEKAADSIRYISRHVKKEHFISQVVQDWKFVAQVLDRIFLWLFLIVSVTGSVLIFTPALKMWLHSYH

Structure (SMILES) | dopamine release ([1]; at higher concentrations) | EC50 (α4β2 nAChR; mean ± S.D.) [nM] | EC50 (α6/3β2β3 nAChR; mean ± S.D., read-out: α6/3β2β3 EC50) [nM] | EC50 [1] [nM] | agonist type at α4β2 nAChR (α4β2 nAChR) | agonist type at α6/3β2β3 nAChR (α6/3β2β3 nAChR) | % of the full receptor activity, α4β2 nAChR (α4β2 nAChR; preliminary, data not shown) [%] | EC50 (α6/3β2β3 nAChR) [nM] | partial activation of α6-containing nAChRs, % of nicotine (α6/3β2β3 nAChR; preliminary data) | % of the full receptor activity, α6/3β2β3 nAChR (α6/3β2β3 nAChR; preliminary, data not shown) [%]
CN1C(=O)CC[C@H]1c1cccnc1 [Cotinine, (-)-cotinine] | 20–30% | > 100000 | > 100000 | – | – | – | – | – | – | –
CN1CCC[C@H]1c1cccnc1 [Nicotine, (-)-Nicotine] | – | – | – | 190 | potent full agonist | potent full agonist | – | – | – | –
C1=CCC(c2cccnc2)NC1 (racemic) [Anatabine, (±)-Anatabine] | – | – | – | 1760 | – | – | ~60 | 3600 ± 300 | approximately 67% | ~70
